Literature values, collected in US20160250192A1, “PRODUCTION METHOD OF PHARMACEUTICAL COMPOSITION CONTAINING CANDESARTAN CILEXETIL” (Sawai Pharmaceutical Co., Ltd., priority 2013, published 2016).

Q: For `CCOc1nc2cccc(C(=O)OC(C)OC(=O)OC3CCCCC3)c2n1Cc1ccc(-c2ccccc2-c2nnn[nH]2)cc1` (racemic) [Candesartan cilexetil, (RS)-1-[(cyclohexyloxy)carbonyloxy]ethyl 2-ethoxy-1-{[2′-(1H-tetrazole-5-yl)-biphenyl-4-yl]methyl}-1H-benzimidazole-7-carboxylate], which solubility in water is on record?
A: The solubility in water was “poorly soluble”.
